Data on two compounds can be found in article PMC9727700 (Redox Biology, 2022).

Experiment [1] deals with SH-SY5Y cells. Description: Intracellular 4-HNE levels in fatty acid-treated SH-SY5Y cells. The class given is cell-based, human. The settings on record: 50 μM.
Experiment [2] has as its system SH-SY5Y cells. Description: Rotenone-treated SH-SY5Y cells: mitochondrial membrane potential. The class given is cell-based, human. The settings on record: rotenone 1 μM; HY08 0.3 μM; NAC 1 μM.

Regarding `CCCCC/C=C\C/C=C\C/C=C\C/C=C\CCCC(=O)O` [AA, arachidonic acid], the “intracellular 4-HNE production” value in the experiment with SH-SY5Y cells [1] was “significantly enhanced”.

As to `CC(=O)N[C@@H](CS)C(=O)O` [NAC, N-Acetyl cysteine], the “rotenone-induced mitochondrial membrane potential loss and cell death” value in the experiment on SH-SY5Y cells [2] was “exerted inhibitory effects”.
